{
  "source": "paper PMC12090809",
  "about": "(Journal of Virology, 2025)",
  "key": {"[1]": {"system": "Env expressed on CH058TF-infected cells", "test": "Binding of anti-CoRBS mAb 17b to CH058TF-infected cells after incubation with plasma from BNM-III-170-treated uninfected RMs (FACS)", "assay_type": "cell-based, HIV-1", "protocol": "Next, we assessed the ability of the plasma collected from uninfected RMs at various timepoints following BNM-III-170 administration to induce conformational changes in Env expressed on the surface of HIV-1-infected cells. Briefly, plasma was incubated with cells infected with the transmitted/founder virus CH058 (CH058TF) and the binding of the Alexa-Fluor-647-conjugated anti-CoRBS mAb 17b (whose epitope is not exposed on the “closed” Env conformation) to Env expressed on infected cells was measured by FACS (Fig. 1B).\nTo evaluate the functional activity of bioavailable BNM-III-170 in plasma, the plasma from uninfected RMs treated with BNM-III-170 was used to modulate Env conformation at the surface of infected cells. Briefly, 2 days post-infection, CEM.NKr cells infected with CH058TF were incubated with plasma from RMs (1:10 dilution), the Alexa-Fluor 647-conjugated 17b (5 µg/mL), and the AquaVivid viability dye at 37°C for 45 min. As a positive control, infected cells were incubated with 50 µM of BNM-III-170. Infected cells were then identified based on HIV-1 p24 detection as described above."}, "[2]": {"system": "CH058TF-infected CEM.NKr cells", "assay_type": "cell-based, HIV-1", "conditions": "50 μM added BNM-III-170 vs absence", "protocol": "Cell surface staining was performed at 48 h post-infection. Mock-infected or HIV-1-infected CEM.NKr or primary CD4+ T cells were incubated for 45 min at 37°C with anti-Env mAbs (5 µg/mL), plasma from PWH (1:1,000 dilution), or plasma from infected RMs (1:500). When indicated, antibody/plasma incubation was done in the presence of 50 µM of BNM-III-170, or equivalent amounts of DMSO. To evaluate the capacity of plasma from SHIV-AD8-EO-infected RMs treated with BNM-III-170 to recognize HIV-1-infected cells, a 1:10 plasma dilution was used. Cells were then washed twice with PBS and stained with the appropriate Alexa Fluor 647-conjugated secondary antibody (2 µg/mL) for 20 min and the viability dye AquaVivid (Thermo Fisher Scientific) at room temperature. Cells were then washed twice with PBS and fixed in a 2% PBS-formaldehyde solution. […]\nMeasurement of ADCC using the FACS-based assay was performed at 48 h post-infection, as previously described. […] The percentage of ADCC was calculated with the following formula: (% of p24+/p27+ cells in Targets plus Effectors) − (% of p24+/p27+ cells in Targets plus Effectors plus Abs) / (% of p24+/p27+ cells in Targets) by gating on infected live target cells."}, "SHIV AD8-EO": {"system": "SHIV AD8-EO", "test": "Plasma viral loads (RT-qPCR) in SHIV AD8-EO-infected RMs during BNM-III-170 treatment", "assay_type": "in vivo, Macaca mulatta", "protocol": "Next, we evaluated the ability of BNM-III-170 to reduce viral replication in these animals, measuring plasma viral loads (PVLs) at multiple timepoints during and immediately following each BNM-III-170 treatment cycle. PVLs declined by 0.92 logs in animal 14C056 following the 3 × 36 mg/kg, 3-day interval treatment cycle (between 0 h of the first dose and 9 days post third dose). […] Importantly, given the small number of animals and absence of untreated controls, it is difficult to determine if the observed reduction in PVLs in animal 14C056 was due to BNM-III-170 treatment or to the natural course of SHIV AD8 EO-infection. This highlights the need for additional, larger studies that include an untreated control arm to more accurately determine the virologic impact of BNM-III-170 on SHIV in vivo.\nPlasma SHIV viral loads (SHIV-RNA copies/mL) were determined as previously described ([61]) using quantitative reverse transcription PCR (RT-qPCR) assays with a limit of detection of 60 copies/mL."}, "[3]": {"conditions": "in vivo, 12 mg/kg", "quoted_text": "BNM-III-170 levels in plasma from rhesus macaque were determined by high-performance liquid chromatography-tandem mass spectrometry (HPLC-MS/MS). Briefly, BNM-III-170 was extracted from plasma using protein precipitation. A Thermo Scientific TSQ Quantiva triple quadrupole mass spectrometer was interfaced with the Thermo Scientific Ultimate 3000XRS UHPLC system using a heated electrospray ion source (HESI). MS detection was performed in positive ion mode, using multiple reaction monitoring (MRM). The precursor-ion reactions for BNM-III-170 and IS were set to 447.3 → [226.1 + 357.1] and 262.0 → 139.1, respectively. Chromatographic separation was achieved on a Thermo Scientific Accucore RP-MS analytical column (100 × 2.1 mm I.D., 2.6 mm) maintained at 40°C using isocratic elution, which consisted of acetonitrile and 10 mM ammonium formate in water (pH 3.0) at a ratio of 20:80, respectively. The flow rate was fixed at 300 µL/min. Acquisition and analysis of data were conducted using the Xcalibur 4.0 software. Each calibration curve was comprised of a double blank (matrix without analyte or internal standard), zero standard, and eight calibration points. Calibration curves were computed from the equation y = ax + b, based on the weight of the calibration lines created from the peak-area ratios of the drug relative to the internal standard."}},
  "data": [
    {"molecule": "CNCc1ccc2c(c1)C[C@H](CN=C(N)N)[C@H]2NC(=O)C(=O)Nc1ccc(Cl)c(F)c1.O=C(O)C(F)(F)F.O=C(O)C(F)(F)F", "note": "[BNM-III-170]", "values": [
      {"measurement": "association between 17b binding and BNM-III-170 plasma concentrations", "setting": "[1]; each dose and all combined doses, Spearman correlation", "result": "positive correlation"},
      {"measurement": "effect on 17b binding to CH058TF-infected cells", "setting": "[1]; plasma from uninfected RMs, all tested doses (3–36 mg/kg SQ)", "result": "consistently shown to increase 17b binding"},
      {"measurement": "duration of residual 17b activity", "setting": "[1]; plasma from uninfected RMs, highest tested dose (36 mg/kg SQ)", "result": "up to 8 h"},
      {"measurement": "ADCC activity of Abs in 0 h RM plasma against infected cells", "setting": "[2]", "result": "significantly increased"},
      {"measurement": "binding of Abs in 0 h RM plasma to infected cells", "setting": "[2]", "result": "significantly increased"},
      {"measurement": "decline in plasma viral loads (PVLs)", "setting": "SHIV AD8-EO; animal 14C056, 3 × 36 mg/kg SQ, 3-day interval, between 0 h of first dose and 9 days post third dose, no untreated controls", "result": 0.92, "unit": "logs"},
      {"measurement": "change in plasma viral loads (PVLs)", "setting": "SHIV AD8-EO; animals 14C013, RYj17, 34901, following BNM-III-170 treatments", "result": "no similar changes in PVLs were observed"},
      {"measurement": "Cmax", "setting": "[3]", "result": 15300, "unit": "ng/mL"}
    ]}
  ]
}
